# Data: patent US5736517A, “Treatment of cancer with peptides” (Biomeasure, Inc., priority 1993, dated 1998)
# pIC50: −log10 of the molar value. Where a SMILES comes first, the peptide text is derived from it. [ ]: non-standard residue; d: D form. The star is where a group is joined. X1 = CC(C)C[C@@H](CN[C@@H](CC(C)C)C(N)=O)N*; pGlu = O=C1CC[C@@H](C(=O)O)N1
# Assays:
# [1] = biological target: T1, bombesin receptors of mouse colon cancer (MC-26) cells (Mus musculus, UniProt P21729); experiment: 125I-GRP binding to MC-26 tumor membranes; conditions: 20 pM 125I-GRP
# T1 construct: endogenous in cells; host or cells: MC-26 mouse colon carcinoma (tumour membranes)
# T1 sequence (P21729 whole entry): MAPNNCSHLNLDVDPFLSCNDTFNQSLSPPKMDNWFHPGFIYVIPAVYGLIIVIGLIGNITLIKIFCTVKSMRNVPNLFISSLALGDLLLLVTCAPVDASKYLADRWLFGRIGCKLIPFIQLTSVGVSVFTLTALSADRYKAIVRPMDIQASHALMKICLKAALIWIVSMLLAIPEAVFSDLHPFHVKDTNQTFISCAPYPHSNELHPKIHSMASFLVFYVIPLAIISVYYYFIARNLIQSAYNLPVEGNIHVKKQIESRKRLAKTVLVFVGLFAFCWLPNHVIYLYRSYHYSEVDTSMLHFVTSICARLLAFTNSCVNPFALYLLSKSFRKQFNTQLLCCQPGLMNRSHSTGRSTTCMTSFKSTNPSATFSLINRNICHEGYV
# Protocol: The bombesin analog BIM-26147 was tested for the ability to inhibit growth of the mouse colon tumor MC-26.
# (§1) For both FIGS. 1 and 2, aliquots of tumor membranes (150 μg protein) were incubated with 20 pM of ^125 I-GRP in the presence of increasing concentrations of peptides, and the displacement of specifically bound ^125 I-GRP to MC-26 tumor membranes by increasing concentrations of peptides is presented as a percent of maximum specific binding of ^125 I-GRP. Each data point is the mean of two observations within an experiment, and represents two experiments. Table 1 presents the IC50 for ^125 I-GRP binding to mouse colon cancer (MC-26) cells and normal colon mucosal cells in the presence of bombesin receptor antagonists. The data in Table 1 was calculated from FIGS. 1 and 2. The fold difference is relative to bombesin (BBS) values.
# [2] = biological target: T2, bombesin receptors of normal mouse colon mucosal membranes (Mus musculus, UniProt P21729); experiment: 125I-GRP binding to normal mouse colon mucosal membranes; conditions: 20 pM 125I-GRP
# T2 construct: from tissue; host or cells: normal mouse colon mucosa (membranes)
# T2 sequence (P21729 whole entry): as above
# Protocol: as §1
# CX-5 human colon tumor = experiment: CX-5 human colon tumor, 11-day subrenal capsule assay (SRCA); assay type: in vivo; conditions: tumor-bearing athymic nude mice, both CX-5 tests (Tables 2 and 3)
# Excerpt: The human colon tumor used for testing was the CX-5 tumor, which was surgically removed from a human and carried as an implant in athymic nude mice. The patient had been untreated prior to surgical removal of the tissue specimen. […] CX-5 was a moderately well-differentiated, mucin secreting adenocarcinoma. The tumor is arranged in acini lined by one or more layers of lining cells which have round to oval vesicular nuclei containing prominent nucleoli. There are frequent mitoses, and the cells have eosinophilic cytoplasm. The acini contain abundant amounts of mucin.
# We briefly describe subrenal capsule assay as follows. Tumors, 6-15 mm in diameter, were removed from the athymic mice and immediately placed in RPMI medium (Gibco, Grand Island, N.Y.) at room temperature. In the case of the larger tumors (over 10 mm in diameter), where the central parts frequently contained necrotic tissue, viable tissue was dissected out and placed in a separate Petri dish. The tissue pieces, while immersed in the medium, were cut with scalpels into cubes of approximately 1 mm.
# Nude mice were anesthetized by i.p. injection of chloral hydrate (0.35-0.45 ml of a 0.22M solution). A shallow incision was made in the left flank and the kidney was exteriorized. […] Immediately after implantation,the tumor size was measured as described below. […]
smiles,measurement,setting,value
"CCCNC(=O)[C@H](CC(C)C)NC(=O)[C@H](Cc1cnc[nH]1)NC(=O)CNC(=O)[C@@H](NC(=O)[C@H](C)NC(=O)[C@H](Cc1c[nH]c2ccccc12)NC(=O)[C@H](CCC(N)=O)NC(=O)[C@H](N)Cc1ccccc1)C(C)C [BIM-26147, D-Phe-Gln-Trp-Ala-Val-Gly-His-Leu-propylamide]",pIC50,[1],8.35
same,pIC50,[2],8.80
"CC(C)C[C@@H](CN[C@@H](Cc1ccccc1)C(N)=O)NC(=O)[C@H](Cc1c[nH]cn1)NC(=O)CNC(=O)[C@@H](NC(=O)[C@H](C)NC(=O)[C@H](Cc1c[nH]c2ccccc12)NC(=O)[C@H](CCC(N)=O)NC(=O)[C@H](N)Cc1ccc(Cl)cc1)C(C)C [BIM-26159, D-Cpa-Gln-Trp-Ala-Val-Gly-His-Leu.psi.[CH2 NH]Phe-NH2]",effect on body weight,CX-5 human colon tumor,no measurable effect on body weight
"CC(C)C[C@@H](CN[C@@H](CC(C)C)C(N)=O)NC(=O)[C@H](Cc1cnc[nH]1)NC(=O)CNC(=O)[C@@H](NC(=O)[C@H](C)NC(=O)[C@H](Cc1c[nH]c2ccccc12)NC(=O)[C@H](CCC(N)=O)NC(=O)[C@H](CC(N)=O)NC(=O)CNC(=O)[C@H](CC(C)C)NC(=O)[C@H](CCCN=C(N)N)NC(=O)[C@H](CCC(N)=O)NC(=O)[C@@H]1CCC(=O)N1)C(C)C [Leu^13 --.psi.(CH2,NH)--Leu^14 --BBS, Leu^13 .psi.[CH2 NH]Leu^14 bombesin] ([pGlu]QRLGNQWAVGH-X1)",pIC50,[1],7.10
same,pIC50,[2],7.82
